In US20260355196A1, “INHIBITORS AND DEGRADERS OF PIP4K PROTEIN” (Larkspur Biosciences, Inc., priority 2023, published 2026):

Target: T1, PIP4K2C (Homo sapiens, UniProt Q8TBX8)
T1 sequence (Q8TBX8 1-421): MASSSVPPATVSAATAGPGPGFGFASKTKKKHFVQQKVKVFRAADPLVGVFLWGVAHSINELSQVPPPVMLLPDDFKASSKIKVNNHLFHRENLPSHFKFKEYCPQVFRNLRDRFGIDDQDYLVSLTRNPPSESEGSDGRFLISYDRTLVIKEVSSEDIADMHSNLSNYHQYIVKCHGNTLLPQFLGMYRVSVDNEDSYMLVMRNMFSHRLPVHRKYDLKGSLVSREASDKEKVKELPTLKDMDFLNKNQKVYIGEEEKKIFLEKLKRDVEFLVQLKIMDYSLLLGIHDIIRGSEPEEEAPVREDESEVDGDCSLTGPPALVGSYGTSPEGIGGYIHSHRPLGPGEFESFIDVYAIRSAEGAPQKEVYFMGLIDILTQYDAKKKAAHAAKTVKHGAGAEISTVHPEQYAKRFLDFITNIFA
Experiment: HiBiT PIP4K2C degradation assay in MOLT-4 cells (endogenous PIP4K2C C-terminally tagged with HiBiT)
Format: cell-based
Parameters: untagged in primary human PBMCs and monocyte-derived dendritic cells
Conditions: 6 hours of incubation time, rather than 24 hours; MOLT-4, top concentration 10 micromolar; read-out: HiBIT-degradation MOLT4 PIP4k2C DC50 (6 hours, marked *)
How it was run: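 Cells are plated onto compound dilutions (10 points, 3-fold, top 10 micromolar) and incubated 24 or 6 hours at 37 C. Lytic HiBiT detection then quantifies tagged endogenous PIP4K2C in MOLT-4, and a Hill fit yields DC50.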

| DC50 [nM] | Structure (SMILES) |
| --- | --- |
| < 500 | O=C1CC[C@H](Nc2ccc(C3CCN(CC4CCN(C(=O)[C@H]5CC[C@H](Nc6ncc(F)c(-c7cccc(-n8ccccc8=O)c7)n6)CC5)CC4)CC3)c(F)c2)C(=O)N1 (single isomer, unassigned) [Compound 456] |
| < 500 | O=C1CCC(Nc2ccc(N3CCN(CC4CCN(C(=O)[C@H]5CC[C@H](Nc6ncc(F)c(-c7cccc(C(=O)N8CC[C@H](O)C8)c7)n6)CC5)CC4)CC3)c(F)c2)C(=O)N1 (stereo partly drawn) [Compound 483, trans-3-((3-fluoro-4-(4-((1-(4-((5-fluoro-4-(3-((S)-3-hydroxypyrrolidine-1-carbonyl)phenyl)pyrimidin-2-yl)amino)cyclohexane-1-carbonyl)piperidin-4-yl)methyl)piperazin-1-yl)phenyl)amino)piperidine-2,6-dione] |
| > 5000 | O=C1CCC(Nc2ccc(N3CCN([C@H]4CC[C@H](C(=O)N[C@H]5CC[C@H](Nc6ncc(F)c(-c7cccc(N8CCOC8=O)c7)n6)CC5)CC4)CC3)c(F)c2)C(=O)N1 (stereo partly drawn) [Compound 411, trans-(1r,4R)-4-(4-(4-((2,6-dioxopiperidin-3-yl)amino)-2-fluorophenyl)piperazin-1-yl)-N-((1r,4R)-4-((5-fluoro-4-(3-(2-oxooxazolidin-3-yl)phenyl)pyrimidin-2-yl)amino)cyclohexyl)cyclohexane-1-carboxamide] |

Continued, compound first:

| Structure (SMILES) | DC50 [nM] |
| --- | --- |
| O=C1CC[C@H](Nc2ccc(N3CCN(CC4(O)CCN(C(=O)[C@H]5CC[C@H](Nc6ncc(F)c(-c7cccc(-n8ccccc8=O)c7)n6)CC5)CC4)CC3)c(F)c2)C(=O)N1 (single isomer, unassigned) [Compound 423] | < 500 |
| O=C1CCC(Nc2ccc(N3CCC(N4CCC(O)(C(=O)N[C@H]5CC[C@H](Nc6ncc(F)c(-c7cccc(-n8ccccc8=O)c7)n6)CC5)CC4)CC3)c(F)c2)C(=O)N1 (stereo partly drawn) [Compound 444, trans-1′-(4-((2,6-dioxopiperidin-3-yl)amino)-2-fluorophenyl)-N-(4-((5-fluoro-4-(3-(2-oxopyridin-1(2H)-yl)phenyl)pyrimidin-2-yl)amino)cyclohexyl)-4-hydroxy-[1,4′-bipiperidine]-4-carboxamide] | < 500 |
| O=C1CCC(Nc2ccc(C3CCN([C@H]4CC[C@H](NC(=O)[C@H]5CC[C@H](Nc6ncc(F)c(-c7cccc(C8CC8)c7)n6)CC5)CC4)CC3)c(F)c2)C(=O)N1 (stereo partly drawn) [Compound 503, trans-4-((4-(3-cyclopropylphenyl)-5-fluoropyrimidin-2-yl)amino)-N-(trans-4-(4-(4-((2,6-dioxopiperidin-3-yl)amino)-2-fluorophenyl)piperidin-1-yl)cyclohexyl)cyclohexane-1-carboxamide] | < 500 |
| O=C1CCC(Nc2ccc(N3CCN(C4CCN(C(=O)O[C@H]5CC[C@H](Nc6ncc(F)c(-c7cccc(N8CCCCC8)c7)n6)CC5)CC4)CC3)c(F)c2)C(=O)N1 (stereo partly drawn) [Compound 687, trans-4-((5-fluoro-4-(3-(piperidin-1-yl)phenyl)pyrimidin-2-yl)amino)cyclohexyl 4-(4-(4-((2,6-dioxopiperidin-3-yl)amino)-2-fluorophenyl)piperazin-1-yl)piperidine-1-carboxylate] | < 500 |
| O=C1CCC(Nc2ccc(N3CCN([C@H]4CC[C@H](NC(=O)[C@H]5CC[C@H](Nc6ncc(F)c(-c7cccc(-n8ccccc8=O)c7)n6)CC5)CC4)CC3)c(F)c2)C(=O)N1 (stereo partly drawn) [Compound 381, trans-(1r,4R)—N-((1r,4R)-4-(4-(4-((2,6-dioxopiperidin-3-yl)amino)-2-fluorophenyl)piperazin-1-yl)cyclohexyl)-4-((5-fluoro-4-(3-(2-oxopyridin-1(2H)-yl)phenyl)pyrimidin-2-yl)amino)cyclohexane-1-carboxamide] | < 500 |
| O=C1CCC(Nc2ccc(N3CCN(C4CCN(C(=O)O[C@H]5CC[C@H](Nc6ncc(F)c(-c7cccc(N8CCCOC8=O)c7)n6)CC5)CC4)CC3)c(F)c2)C(=O)N1 (stereo partly drawn) [Compound 674, trans-4-((5-fluoro-4-(3-(2-oxo-1,3-oxazinan-3-yl)phenyl)pyrimidin-2-yl)amino)cyclohexyl 4-(4-(4-((2,6-dioxopiperidin-3-yl)amino)-2-fluorophenyl)piperazin-1-yl)piperidine-1-carboxylate] | < 500 |
| Cn1nc(C2CCC(=O)NC2=O)c2ccc(N3CCN([C@H]4CC[C@H](NC(=O)[C@H]5CC[C@H](Nc6ncc(F)c(-c7cccc(-n8ccccc8=O)c7)n6)CC5)CC4)CC3)cc21 (stereo partly drawn) [Compound 383, trans-N-(trans-4-(4-(3-(2,6-dioxopiperidin-3-yl)-1-methyl-1H-indazol-6-yl)piperazin-1-yl)cyclohexyl)-4-((5-fluoro-4-(3-(2-oxopyridin-1(2H)-yl)phenyl)pyrimidin-2-yl)amino)cyclohexane-1-carboxamide] | < 500 |
| O=C1CCC(Nc2ccc(N3CCC(N4CCC(NC(=O)[C@H]5CC[C@H](Nc6ncc(F)c(-c7cccc(N8CCCCC8)c7)n6)CC5)CC4)C(F)C3)c(F)c2)C(=O)N1 (stereo partly drawn) [Compound 700, trans-N-(1′-(4-((2,6-dioxopiperidin-3-yl)amino)-2-fluorophenyl)-3′-fluoro-[1,4′-bipiperidin]-4-yl)-4-((5-fluoro-4-(3-(piperidin-1-yl)phenyl)pyrimidin-2-yl)amino)cyclohexane-1-carboxamide] | < 500 |

Same assay, conditions: 24 hours incubation, MOLT-4, top concentration 10 micromolar; read-out: HiBIT-degradation MOLT4 PIP4k2C 24 hours DC50

| DC50 [nM] | Structure (SMILES) |
| --- | --- |
| < 500 | Cn1c(=O)n(C2CCC(=O)NC2=O)c2ccc(C3CCN(C(=O)CN4CCN(C(=O)[C@H]5CCC[C@@H](Nc6ncc(Cl)c(-c7cccc(-c8ccccc8)c7)n6)C5)CC4)CC3)cc21 (relative stereo) [Compound 58, cis-3-(5-(1-(2-(4-(3-((4-([1,1′-biphenyl]-3-yl)-5-chloropyrimidin-2-yl)amino)cyclohexane-1-carbonyl)piperazin-1-yl)acetyl)piperidin-4-yl)-3-methyl-2-oxo-2,3-dihydro-1H-benzo[d]imidazol-1-yl)piperidine-2,6-dione] |
| < 500 | O=C1CCC(n2c(=O)oc3cc(N4CCC(CN5CCC(CC(=O)N[C@H]6CC[C@H](Nc7ncc(F)c(-c8cccc(-n9ccccc9=O)c8)n7)CC6)CC5)CC4)ccc32)C(=O)N1 (stereo partly drawn) [Compound 358, trans-2-(1-((1-(3-(2,6-dioxopiperidin-3-yl)-2-oxo-2,3-dihydrobenzo[d]oxazol-6-yl)piperidin-4-yl)methyl)piperidin-4-yl)-N-(4-((5-fluoro-4-(3-(2-oxopyridin-1(2H)-yl)phenyl)pyrimidin-2-yl)amino)cyclohexyl)acetamide] |
| < 500 | O=C1CCC(N2Cc3cc(C4CCN(CC5CCN(CC(=O)N6CCC(Nc7ncc(Cl)c(-c8cccc(-c9ccccc9)c8)n7)CC6)CC5)CC4)ccc3C2=O)C(=O)N1 (stereo not shown) [Compound 50] |
| < 500 | Cn1c(=O)n(C2CCC(=O)NC2=O)c2ccc(C3CCN(C4CCN(CC(=O)N5CCC[C@H](Nc6ncc(Cl)c(-c7cccc(-c8ccccc8)c7)n6)C5)CC4)CC3)cc21 (stereo partly drawn) [Compound 75, 3-(5-(1′-(2-((S)-3-((4-([1,1′-biphenyl]-3-yl)-5-chloropyrimidin-2-yl)amino)piperidin-1-yl)-2-oxoethyl)-[1,4′-bipiperidin]-4-yl)-3-methyl-2-oxo-2,3-dihydro-1H-benzo[d]imidazol-1-yl)piperidine-2,6-dione] |

The next lines start with the compound.

| Structure (SMILES) | DC50 [nM] |
| --- | --- |
| O=C1CCC(Nc2ccc(N3CCC(CN4CCC(NC(=O)[C@H]5CCC[C@@H](Nc6ncc(F)c(-c7cccc(-n8ccccc8=O)c7)n6)C5)CC4)CC3)c(F)c2)C(=O)N1 (relative stereo) [Compound 336, cis-N-(1-((1-(4-((2,6-dioxopiperidin-3-yl)amino)-2-fluorophenyl)piperidin-4-yl)methyl)piperidin-4-yl)-3-((5-fluoro-4-(3-(2-oxopyridin-1(2H)-yl)phenyl)pyrimidin-2-yl)amino)cyclohexane-1-carboxamide] | < 500 |
| Cn1c(=O)n(C2CCC(=O)NC2=O)c2ccc(C3CCN(CCC4CCN(C(=O)[C@@H]5CCC[C@H](Nc6ncc(Cl)c(-c7cccc(-c8ccccc8)c7)n6)C5)CC4)CC3)cc21 (stereo partly drawn) [Compound 280, 3-(5-(1-(2-(1-((1R,3S)-3-((4-([1,1′-biphenyl]-3-yl)-5-chloropyrimidin-2-yl)amino)cyclohexane-1-carbonyl)piperidin-4-yl)ethyl)piperidin-4-yl)-3-methyl-2-oxo-2,3-dihydro-1H-benzo[d]imidazol-1-yl)piperidine-2,6-dione] | < 500 |
| O=C1CCC(n2c(=O)oc3cc(C4CCN(CCC5CCN(C(=O)[C@H]6C[C@@H](Nc7ncc(F)c(-c8cccc(-n9ccccc9=O)c8)n7)C6)CC5)CC4)ccc32)C(=O)N1 (stereo partly drawn) [Compound 325, cis-3-(6-(1-(2-(1-(3-((5-fluoro-4-(3-(2-oxopyridin-1(2H)-yl)phenyl)pyrimidin-2-yl)amino)cyclobutane-1-carbonyl)piperidin-4-yl)ethyl)piperidin-4-yl)-2-oxobenzo[d]oxazol-3 (2H)-yl)piperidine-2,6-dione] | < 500 |

Same assay, conditions: read-out: HiBIT-degradation MOLT4 PIP4k2C 24 hours DC50; 24 hours incubation, MOLT-4, top concentration 10 micromolar

| Structure (SMILES) | DC50 [nM] |
| --- | --- |
| O=C1CCC(n2c(=O)oc3cc(C4CCN(CC5CCN(CC(=O)N[C@H]6CC[C@H](Nc7ncc(F)c(C8CCCN(C(=O)C9CC9)C8)n7)CC6)CC5)CC4)ccc32)C(=O)N1 (stereo partly drawn) [Compound 359, trans-N-(4-((4-(1-(cyclopropanecarbonyl)piperidin-3-yl)-5-fluoropyrimidin-2-yl)amino)cyclohexyl)-2-(4-((4-(3-(2,6-dioxopiperidin-3-yl)-2-oxo-2,3-dihydrobenzo[d]oxazol-6-yl)piperidin-1-yl)methyl)piperidin-1-yl)acetamide] | < 500 |
